Where two headings read alike, the source gives them in different places.

The results in this text go back to patent US9776972B2, “Pyrazole derivatives as arginine methyltransferase inhibitors and uses thereof” (priority 2013, dated 2017).

The target of one test is human PRMT8 (Homo sapiens, UniProt Q9NR22). Put plainly: PRMT8 Biochemical Assay (3H-SAM Flashplate, peptide substrate). The method in brief:
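Methylation of a biotin-tagged histone H4 peptide (residues 31-45) by recombinant PRMT8 was measured as 3H transfer from 3H-SAM, after a 30 min room-temperature compound preincubation in Bicine buffer pH 7.6. Reactions were quenched with unlabelled SAM to 400 uM final, then bound counts were read by streptavidin Flashplate. IC50 came from a Hill fit of % inhibition relative to max and SAH min controls.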

Test [1] relates to mono-methyl arginine in RKO cells. Put plainly: RKO Methylation Assay, In Cell Western (ICW) for mono-methyl arginine and DNA content. The test is classed as cell-based. The following applies: Homo sapiens, RKO, 72 h, RKO cells, 72 hours, mono-methyl arginine, percent activation. The method, boiled down: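 After fixation, mono-methyl arginine and DNA (DRAQ5) were measured by infrared In-Cell Western imaging at 700/800 nm in RKO cells exposed to compounds for 72 hours. Percent activation used DMSO wells as minimum and 20 μM reference compound as maximum; EC30 curves fitted on triplicate wells.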

[2] abbreviates: single experiment or average of multiple experiments.
Where [3] appears, read: class symbols, read-out: EC30 (In Cell Western data).
Setting [4] is: single experiment or average of multiple experiments, read-out: EC30 (In Cell Western data, Numerical).

Chain of human PRMT8 (Q9NR22 whole entry, the tested form may be a part): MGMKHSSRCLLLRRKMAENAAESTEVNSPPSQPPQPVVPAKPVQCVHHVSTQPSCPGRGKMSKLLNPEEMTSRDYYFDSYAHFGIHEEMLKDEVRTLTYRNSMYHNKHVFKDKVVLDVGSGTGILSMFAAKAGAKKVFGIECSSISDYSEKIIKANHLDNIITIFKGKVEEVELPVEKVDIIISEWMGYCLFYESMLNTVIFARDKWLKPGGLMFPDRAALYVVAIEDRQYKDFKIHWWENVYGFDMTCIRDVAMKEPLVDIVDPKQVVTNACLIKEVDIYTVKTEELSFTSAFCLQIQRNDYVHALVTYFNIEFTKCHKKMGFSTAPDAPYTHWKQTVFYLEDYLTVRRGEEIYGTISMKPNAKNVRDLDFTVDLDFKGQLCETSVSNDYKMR

In general, IC50 refers to the concentration needed to halve the response being measured. Lower therefore signals higher potency. Usually EC30 stands for the concentration needed for an effect of 30%. In the case of `CNCCN(C)Cc1c[nH]nc1-c1ccc(Oc2cncnc2)cc1` [Compound 303], the IC50 against human PRMT8 was < 100 nM; on human PRMT8 (setting [2]), 54.7 nM. The EC30 in test [1] (setting [3]) is < 3000 nM; in test [1] (setting [4]), 712 nM.
Regarding `CNCCN(C)Cc1c[nH]nc1-c1ccc(OC2CCC2)cc1` [Compound 304], the IC50 against human PRMT8 is < 100 nM; against human PRMT8 (setting [2]) it was 22.4 nM. Besides, the EC30 in test [1] (setting [3]) was < 3000 nM; in test [1] (setting [4]), 155 nM.
In the case of `CNCCN(C)Cc1c[nH]nc1-c1ccc(OC2CCC2)c(F)c1` [Compound 305], the IC50 is < 100 nM at human PRMT8 and 18.3 nM at human PRMT8 (setting [2]). Also, the results for the EC30 in test [1] (setting [3]) and in test [1] (setting [4]) were < 3000 nM and 193 nM, respectively.
Regarding `CNCCN(C)Cc1c[nH]nc1-c1ccc(OCC(C)C)cc1` [Compound 306], the figures for the IC50 on human PRMT8 and against human PRMT8 (setting [2]) were < 100 nM and 18.5 nM, respectively. The EC30 was < 3000 nM in test [1] (setting [3]) and 100 nM in test [1] (setting [4]).
Consider `CNCCN(C)Cc1c[nH]nc1-c1ccc(OCC2CCC2)cc1` [Compound 307], for which the values for the IC50 against human PRMT8 and at human PRMT8 (setting [2]) were < 100 nM and 14 nM, respectively. The results for the EC30 in test [1] (setting [3]) and in test [1] (setting [4]) were < 3000 nM and 109 nM, respectively.
The matching figures for `CC[C@@H](C)Oc1ccc(-c2n[nH]cc2CN(C)CCNC)cc1` [Compound 308]: < 100 nM, 14.1 nM, < 3000 nM and 65 nM.
For `CC[C@H](C)Oc1ccc(-c2n[nH]cc2CN(C)CCNC)cc1` [Compound 309], in that order: < 100 nM, 13 nM, < 3000 nM and 24 nM.
The matching figures for `CCC(COC)Oc1ccc(-c2n[nH]cc2CN(C)CCNC)cc1` (centres unmarked) [Compound 310]: < 100 nM, 17 nM, < 3000 nM and 32 nM.
For `CNCCN(C)Cc1c[nH]nc1-c1ccc(OC(COC)C(C)C)cc1` (centres unmarked) [Compound 311], the IC50 against human PRMT8 is < 100 nM; at human PRMT8 (setting [2]), 50.9 nM. In addition, the EC30 in test [1] (setting [3]) was < 3000 nM; in test [1] (setting [4]) it was 227 nM.
As for `CNCCN(C)Cc1c[nH]nc1-c1ccc(Oc2ccncn2)cc1` [Compound 312], the figures for the IC50 against human PRMT8 and against human PRMT8 (setting [2]) were < 100 nM and 90.9 nM, respectively. Moreover, the EC30 in test [1] (setting [3]) is < 3000 nM; in test [1] (setting [4]), 824 nM.
In the case of `CNCCN(C)Cc1c[nH]nc1-c1ccc(C(C)(C)COC)cc1` [Compound 313], the values for the IC50 against human PRMT8 and against human PRMT8 (setting [2]) were < 100 nM and 60.1 nM, respectively. The EC30 in test [1] (setting [3]) was < 3000 nM; in test [1] (setting [4]) it was 894 nM.
The matching figures for `CNCCN(C)Cc1c[nH]nc1-c1ccc(OC(COC)CC(C)C)cc1` (centres unmarked) [Compound 314]: 101 to 1000 nM, 110 nM, < 3000 nM and 510 nM.
For `CNCCN(C)Cc1c[nH]nc1-c1ccc(OC2CC(OC)C2)cc1` (centres unmarked) [Compound 315], the values for the IC50 at human PRMT8 and against human PRMT8 (setting [2]) were 101 to 1000 nM and 108 nM, respectively. The EC30 in test [1] (setting [3]) is < 3000 nM; in test [1] (setting [4]), 843 nM.
As for `CNCCN(C)Cc1c[nH]nc1-c1ccc(OC(COC)COC)cc1` [Compound 316], the IC50 against human PRMT8 was < 100 nM; at human PRMT8 (setting [2]), 43 nM. Further, the EC30 in test [1] (setting [3]) is < 3000 nM; in test [1] (setting [4]), 63 nM.
